Assay results from the supplement of paper PMC6045584.
± gives the standard deviation of the averaged measurements.

What was measured:
GEFITINIB = compound: COc1cc2ncnc(Nc3ccc(F)c(Cl)c3)c2cc1OCCCN1CCOCC1 [GEFITINIB]; test: surviving fraction relative to DMSO-only wells; higher = less growth inhibition; settings: exposure time: 5 days
Outline: (§1)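 A line counted only if its three screens reached replicate Pearson r >0.7 and median Z' >0.3. Tumour cells in log phase were seeded at 250–500 per well in 384-well plates and, after 24 hours, kept in continuous contact with inhibitors at 0.5, 1, 5, 10, 50, 100, 500 and 1000 nM for five days. Surviving fraction was taken from CellTiter-Glo luminescence relative to the median of DMSO-only wells.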

[1] = compound: CC(=O)c1c(C)c2cnc(Nc3ccc(N4CCNCC4)cn3)nc2n(C2CCCC2)c1=O; test: as above; settings: exposure time: 5 days
Outline: as §1

Test System	surviving fraction (GEFITINIB; 0.5 nM)	surviving fraction (GEFITINIB; 1 nM)	surviving fraction (GEFITINIB; 5 nM)	surviving fraction (GEFITINIB; 10 nM)	surviving fraction (GEFITINIB; 50 nM)	surviving fraction (GEFITINIB; 100 nM)	surviving fraction (GEFITINIB; 500 nM)	surviving fraction (GEFITINIB; 1000 nM)	surviving fraction ([1]; 0.5 nM)	surviving fraction ([1]; 1 nM)	surviving fraction ([1]; 5 nM)	surviving fraction ([1]; 10 nM)	surviving fraction ([1]; 50 nM)	surviving fraction ([1]; 100 nM)	surviving fraction ([1]; 500 nM)	surviving fraction ([1]; 1000 nM)
MHM BONE	1.01 ± 0.046	1.02 ± 0.038	1.06 ± 0.051	1.05 ± 0.051	1.03 ± 0.012	1.026 ± 0.01	0.9993 ± 0.0096	0.972 ± 0.013	1.01 ± 0.029	0.98 ± 0.018	1.037 ± 0.0076	1.03 ± 0.011	1.05 ± 0.019	1.03 ± 0.016	0.966 ± 0.015	0.985 ± 0.044
HSSYII SYNOVIAL	1.04 ± 0.026	0.9723 ± 0.0083	1.05 ± 0.022	1.03 ± 0.047	1.03 ± 0.017	1.03 ± 0.067	0.995 ± 0.051	0.98 ± 0.065	0.986 ± 0.015	0.935 ± 0.028	0.975 ± 0.035	1 ± 0.019	0.892 ± 0.045	0.914 ± 0.07	0.811 ± 0.013	0.737 ± 0.045
MDAMB468 BREAST	1.11 ± 0.097	1.08 ± 0.062	1.14 ± 0.087	1.11 ± 0.02	1.07 ± 0.099	1.028 ± 0.01	0.588 ± 0.026	0.503 ± 0.058	1.07 ± 0.03	0.991 ± 0.044	1.07 ± 0.03	1 ± 0.041	1.1 ± 0.038	1.12 ± 0.032	1.05 ± 0.057	1.03 ± 0.064
SG43 HEADNECK	1.36 ± 0.4	1.21 ± 0.45	0.814 ± 0.26	0.825 ± 0.2	0.649 ± 0.17	0.406 ± 0.034	0.264 ± 0.033	0.21 ± 0.043	0.92 ± 0.039	1 ± 0.12	0.862 ± 0.16	0.855 ± 0.059	0.73 ± 0.11	0.745 ± 0.12	1.02 ± 0.12	0.766 ± 0.28
HCC38 BREAST	1.05 ± 0.086	1.33 ± 0.089	1.25 ± 0.17	1.24 ± 0.1	1.23 ± 0.13	1.29 ± 0.03	1.1 ± 0.096	1.18 ± 0.053	1.11 ± 0.12	1.22 ± 0.16	1.23 ± 0.036	1.19 ± 0.14	1.21 ± 0.15	1.09 ± 0.096	1.28 ± 0.12	1.24 ± 0.11
SYO1 SYNOVIAL	1.05 ± 0.068	0.97 ± 0.049	0.982 ± 0.068	0.98 ± 0.012	0.984 ± 0.017	0.898 ± 0.024	1 ± 0.021	0.935 ± 0.024	0.989 ± 0.024	0.966 ± 0.021	0.984 ± 0.024	1.02 ± 0.054	0.995 ± 0.018	0.98 ± 0.066	0.792 ± 0.061	0.706 ± 0.055
SNU475 LIVER	1.05 ± 0.096	1.05 ± 0.05	1.01 ± 0.016	1.03 ± 0.05	1.02 ± 0.045	0.979 ± 0.038	0.939 ± 0.021	0.898 ± 0.028	1.02 ± 0.037	1.01 ± 0.041	1.06 ± 0.026	1.01 ± 0.073	1.07 ± 0.02	1.03 ± 0.088	1.04 ± 0.021	0.917 ± 0.04
CAL120 BREAST	0.964 ± 0.046	0.965 ± 0.031	0.968 ± 0.025	0.956 ± 0.039	1.016 ± 0.0095	0.985 ± 0.031	0.995 ± 0.035	0.93 ± 0.042	0.953 ± 0.017	0.965 ± 0.026	0.9478 ± 0.0082	0.9508 ± 0.0056	1.01 ± 0.014	0.974 ± 0.0098	0.9508 ± 0.0081	0.935 ± 0.013
YAMATO SYNOVIAL	1.24 ± 0.098	1.21 ± 0.05	1.25 ± 0.043	1.36 ± 0.15	1.42 ± 0.086	1.32 ± 0.1	1.35 ± 0.08	1.09 ± 0.046	1.2 ± 0.07	1.14 ± 0.065	1.28 ± 0.11	1.23 ± 0.14	1.3 ± 0.061	1.25 ± 0.047	0.984 ± 0.034	0.935 ± 0.056
SCC36 HEADNECK	1.08 ± 0.091	1.02 ± 0.023	1.13 ± 0.057	0.972 ± 0.057	0.735 ± 0.11	0.643 ± 0.1	0.45 ± 0.03	0.397 ± 0.05	1.02 ± 0.1	1.01 ± 0.015	1.17 ± 0.064	1.11 ± 0.056	1.1 ± 0.084	1.07 ± 0.025	0.923 ± 0.094	0.897 ± 0.025
MDAMB157 BREAST	1.04 ± 0.033	0.968 ± 0.067	0.92 ± 0.057	1.01 ± 0.059	0.911 ± 0.1	1.02 ± 0.053	0.991 ± 0.026	0.864 ± 0.066	0.929 ± 0.05	0.884 ± 0.027	0.974 ± 0.042	0.973 ± 0.053	1.03 ± 0.12	1.01 ± 0.13	1 ± 0.12	0.902 ± 0.061
VCAP PROSTATE	1.13 ± 0.089	1.11 ± 0.14	1.13 ± 0.12	1.15 ± 0.14	1.19 ± 0.083	1.08 ± 0.056	1.21 ± 0.16	1.07 ± 0.076	1.08 ± 0.018	1.08 ± 0.025	1.14 ± 0.076	1.17 ± 0.053	1.1 ± 0.13	1.18 ± 0.025	0.829 ± 0.11	0.773 ± 0.0044
MDAMB361 BREAST	0.861 ± 0.02	0.851 ± 0.071	0.908 ± 0.025	1 ± 0.042	0.89 ± 0.14	0.859 ± 0.15	0.834 ± 0.092	0.834 ± 0.13	0.924 ± 0.046	0.861 ± 0.13	0.882 ± 0.09	0.825 ± 0.053	0.881 ± 0.083	0.86 ± 0.032	0.861 ± 0.23	0.866 ± 0.021
SCC003 HEADNECK	1.02 ± 0.057	1.01 ± 0.056	1.1 ± 0.027	0.995 ± 0.11	0.945 ± 0.026	0.857 ± 0.035	0.54 ± 0.043	0.47 ± 0.029	1.12 ± 0.06	1.02 ± 0.064	1.11 ± 0.036	1.08 ± 0.086	1.13 ± 0.14	1.08 ± 0.076	1.06 ± 0.081	0.884 ± 0.084
RDES SOFT TISSUE	1.07 ± 0.13	1.06 ± 0.15	1.05 ± 0.058	1.17 ± 0.079	1.03 ± 0.26	1.22 ± 0.12	1.16 ± 0.19	1.2 ± 0.14	1.27 ± 0.17	1.18 ± 0.037	1.23 ± 0.067	1.02 ± 0.19	1.02 ± 0.24	1.02 ± 0.21	1.67 ± 0.18	1.57 ± 0.2
SCC90 HEADNECK	1.15 ± 0.1	1.06 ± 0.15	1.03 ± 0.023	0.85 ± 0.051	0.804 ± 0.019	0.651 ± 0.057	0.474 ± 0.044	0.465 ± 0.054	1.092 ± 0.0083	1.1 ± 0.11	1.12 ± 0.1	1.15 ± 0.025	1.06 ± 0.042	1.19 ± 0.14	1.12 ± 0.056	1.13 ± 0.13
SG27 HEADNECK	1.11 ± 0.041	1.1 ± 0.074	1.03 ± 0.037	1.16 ± 0.12	1.14 ± 0.13	1.12 ± 0.13	1.09 ± 0.024	1.11 ± 0.016	1.18 ± 0.081	1.07 ± 0.1	1.02 ± 0.025	0.956 ± 0.086	1.08 ± 0.15	1.09 ± 0.1	1.06 ± 0.048	1.1 ± 0.33
ASKA SYNOVIAL	1.13 ± 0.052	1.11 ± 0.06	1.05 ± 0.085	1.16 ± 0.051	1.19 ± 0.077	1.16 ± 0.073	1.08 ± 0.053	1.1 ± 0.058	1.04 ± 0.06	0.971 ± 0.057	1.06 ± 0.094	1.02 ± 0.071	1.07 ± 0.1	1.08 ± 0.074	0.82 ± 0.034	0.73 ± 0.023
HCC1395 BREAST	1.07 ± 0.057	1.07 ± 0.035	1.18 ± 0.12	1.22 ± 0.17	1.24 ± 0.059	1.21 ± 0.045	1.2 ± 0.085	1.11 ± 0.039	1.22 ± 0.076	0.965 ± 0.17	1.19 ± 0.088	1.13 ± 0.087	1.28 ± 0.09	1.1 ± 0.11	1.31 ± 0.083	1.34 ± 0.07
CASKI CERVIX	0.956 ± 0.025	0.929 ± 0.096	0.851 ± 0.032	0.815 ± 0.042	0.556 ± 0.015	0.471 ± 0.011	0.308 ± 0.018	0.213 ± 0.0095	1.02 ± 0.062	0.971 ± 0.028	0.999 ± 0.038	0.977 ± 0.015	1.09 ± 0.034	1.08 ± 0.019	1.05 ± 0.049	1.05 ± 0.028
CCK81 LARGE INTESTINE	0.85 ± 0.091	0.849 ± 0.081	0.77 ± 0.12	0.72 ± 0.06	0.628 ± 0.091	0.325 ± 0.12	0.0823 ± 0.018	0.076 ± 0.012	–	–	–	–	–	–	–	–
